Assay results from ChEMBL document CHEMBL1201862, “PubChem BioAssay data set” (2004).
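Protocol summary: plate cells (96-well), add compound at 5 concentrations, incubate 48 h, interpolate endpoints linearly. GI50 is the concentration that inhibits growth by half.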 Active and inactive are the calls of the source. Rule as the data show it: active = GI50 up to about 1.1 µM and inactive = higher.

Key:
Experiment in all cases: NCI-60 cell line screen, 48 h
[1] = test system: Hs-578T
[2] = test system: NCI-H226
[3] = test system: EKVX
[4] = test system: OVCAR-4
[5] = test system: Malme-3M
[6] = test system: TK-10
[7] = test system: SK-MEL-28
[8] = test system: SW-620
[9] = test system: SNB-75
[10] = test system: OVCAR-5
[11] = test system: MDA-N
[12] = test system: T47D
[13] = test system: NCI-H522
[14] = test system: PC-3
[15] = test system: OVCAR-8
[16] = test system: UACC-257
[17] = test system: 786-0
[18] = test system: HCC 2998
[19] = test system: CAKI-1
[20] = test system: OVCAR-3
[21] = test system: UO-31
[22] = test system: COLO 205
[23] = test system: BT-549
[24] = test system: KM12
[25] = test system: CCRF-CEM
[26] = test system: RPMI-8226
[27] = test system: MOLT-4
[28] = test system: SK-MEL-5
[29] = test system: SF-539
[30] = test system: HL-60
[31] = test system: HCT-15
[32] = test system: UACC-62
[33] = test system: K562
[34] = test system: A549
[35] = test system: SK-OV-3
[36] = test system: SNB-19
[37] = test system: MDA-MB-435
[38] = test system: NCI-H23
[39] = test system: U-251
[40] = test system: A498
[41] = test system: ACHN
[42] = test system: HT-29
[43] = test system: DU-145
[44] = test system: NCI/ADR-RES
[45] = test system: MDA-MB-231
[46] = test system: SF-295
[47] = test system: MCF7
[48] = test system: M14
[49] = test system: LOX IMVI
[50] = test system: HCT-116
[51] = test system: HOP-92
[52] = test system: IGROV-1
[53] = test system: SN12C
[54] = test system: HOP-62
[55] = test system: NCI-H460
[56] = test system: SF-268
[57] = test system: SK-MEL-2
[58] = test system: RXF 393
[59] = test system: SR

CN(C)c1ccc(/C=C(\NC(=O)c2ccccc2)C(=O)NC(Cc2c[nH]c3ccccc23)C(=O)O)cc1 (centres undefined)
GI50 [1]: > 100 µM (inactive)
GI50 [2]: > 100 µM (inactive)
GI50 [3]: > 100 µM (inactive)
GI50 [4]: > 100 µM (inactive)
GI50 [5]: > 100 µM (inactive)
GI50 [6]: > 100 µM (inactive)
GI50 [7]: > 100 µM (inactive)
GI50 [8]: > 100 µM (inactive)
GI50 [9]: 0.226 µM (active)
GI50 [10]: > 100 µM (inactive)
GI50 [11]: > 100 µM (inactive)
GI50 [12]: > 100 µM (inactive)
GI50 [13]: 47.6 µM (inactive)
GI50 [14]: > 100 µM (inactive)
GI50 [15]: > 100 µM (inactive)
GI50 [16]: 69 µM (inactive)
GI50 [17]: > 100 µM (inactive)
GI50 [18]: > 100 µM (inactive)
GI50 [19]: > 100 µM (inactive)
GI50 [20]: > 100 µM (inactive)
GI50 [21]: > 100 µM (inactive)
GI50 [22]: > 100 µM (inactive)
GI50 [23]: > 100 µM (inactive)
GI50 [24]: > 100 µM (inactive)
GI50 [25]: > 100 µM (inactive)
GI50 [26]: > 100 µM (inactive)
GI50 [27]: > 100 µM (inactive)
GI50 [28]: > 100 µM (inactive)
GI50 [29]: > 100 µM (inactive)
GI50 [30]: > 100 µM (inactive)
GI50 [31]: > 100 µM
GI50 [32]: > 100 µM (inactive)
GI50 [33]: > 100 µM (inactive)
GI50 [34]: > 100 µM (inactive)
GI50 [35]: > 100 µM (inactive)
GI50 [36]: > 100 µM (inactive)
GI50 [37]: > 100 µM (inactive)
GI50 [38]: > 100 µM (inactive)
GI50 [39]: > 100 µM (inactive)
GI50 [40]: > 100 µM (inactive)
GI50 [41]: > 100 µM (inactive)
GI50 [42]: > 100 µM (inactive)
GI50 [43]: > 100 µM (inactive)
GI50 [44]: > 100 µM (inactive)
GI50 [45]: > 100 µM (inactive)
GI50 [46]: > 100 µM (inactive)
GI50 [47]: > 100 µM (inactive)
GI50 [48]: > 100 µM (inactive)
GI50 [49]: > 100 µM (inactive)
GI50 [50]: > 100 µM (inactive)
GI50 [51]: > 100 µM (inactive)
GI50 [52]: > 100 µM (inactive)
GI50 [53]: > 100 µM (inactive)
GI50 [54]: 34.4 µM (inactive)
GI50 [55]: > 100 µM (inactive)
GI50 [56]: > 100 µM (inactive)
GI50 [57]: > 100 µM (inactive)
GI50 [58]: > 100 µM (inactive)

CN(C)Cc1ccc(O)c(CN(C)C)n1
GI50 [1]: > 100 µM (inactive)
GI50 [2]: > 100 µM (inactive)
GI50 [3]: > 100 µM (inactive)
GI50 [4]: > 100 µM (inactive)
GI50 [5]: > 100 µM (inactive)
GI50 [6]: > 100 µM (inactive)
GI50 [7]: > 100 µM (inactive)
GI50 [8]: > 100 µM (inactive)
GI50 [9]: > 100 µM (inactive)
GI50 [10]: > 100 µM (inactive)
GI50 [11]: > 100 µM (inactive)
GI50 [12]: > 100 µM (inactive)
GI50 [59]: > 100 µM (inactive)
GI50 [13]: > 100 µM (inactive)
GI50 [14]: > 100 µM (inactive)
GI50 [15]: > 100 µM (inactive)
GI50 [16]: > 100 µM (inactive)
GI50 [17]: > 100 µM (inactive)
GI50 [19]: > 100 µM (inactive)
GI50 [20]: > 100 µM (inactive)
GI50 [21]: > 100 µM (inactive)
GI50 [22]: > 100 µM (inactive)
GI50 [23]: > 100 µM (inactive)
GI50 [24]: > 100 µM (inactive)
GI50 [26]: > 100 µM (inactive)
GI50 [27]: > 100 µM (inactive)
GI50 [28]: > 100 µM (inactive)
GI50 [29]: > 100 µM (inactive)
GI50 [31]: > 100 µM
GI50 [32]: > 100 µM (inactive)
GI50 [33]: > 100 µM (inactive)
GI50 [34]: > 100 µM (inactive)
GI50 [35]: > 100 µM (inactive)
GI50 [36]: > 100 µM (inactive)
GI50 [37]: > 100 µM (inactive)
GI50 [38]: > 100 µM (inactive)
GI50 [39]: > 100 µM (inactive)
GI50 [40]: > 100 µM (inactive)
GI50 [41]: > 100 µM (inactive)
GI50 [42]: > 100 µM (inactive)
GI50 [43]: > 100 µM (inactive)
GI50 [44]: > 100 µM (inactive)
GI50 [45]: > 100 µM (inactive)
GI50 [46]: > 100 µM (inactive)
GI50 [47]: > 100 µM (inactive)
GI50 [48]: > 100 µM (inactive)
GI50 [49]: > 100 µM (inactive)
GI50 [50]: > 100 µM (inactive)
GI50 [51]: > 100 µM (inactive)
GI50 [52]: > 100 µM (inactive)
GI50 [53]: > 100 µM (inactive)
GI50 [54]: > 100 µM (inactive)
GI50 [55]: > 100 µM (inactive)
GI50 [56]: > 100 µM (inactive)
GI50 [57]: > 100 µM (inactive)
GI50 [58]: > 100 µM (inactive)
